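48-hour exposure; five concentrations; linearly interpolated endpoints. GI50 marks 50% less growth.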 The source made the active and inactive calls. No stated cut-off is given here; in the data, active = GI50 up to about 1.1 µM and inactive = higher.
Columns and labels:
Assay in all cases: NCI anticancer screen, dose series, 48 h
RPMI-8226 = tested on: RPMI-8226
MDA-MB-435 = tested on: MDA-MB-435
K562 = tested on: K562
SN12C = tested on: SN12C
SR = tested on: SR
KM12 = tested on: KM12
SK-OV-3 = tested on: SK-OV-3
RXF 393 = tested on: RXF 393
DU-145 = tested on: DU-145
HL-60 = tested on: HL-60
LOX IMVI = tested on: LOX IMVI
HOP-92 = tested on: HOP-92
Hs-578T = tested on: Hs-578T
HCT-116 = tested on: HCT-116
CCRF-CEM = tested on: CCRF-CEM
OVCAR-3 = tested on: OVCAR-3
EKVX = tested on: EKVX
NCI-H522 = tested on: NCI-H522
OVCAR-5 = tested on: OVCAR-5
BT-549 = tested on: BT-549

Compound | GI50 (RPMI-8226) | GI50 (MDA-MB-435) | GI50 (K562) | GI50 (SN12C) | GI50 (SR) | GI50 (KM12) | GI50 (SK-OV-3) | GI50 (RXF 393) | GI50 (DU-145) | GI50 (HL-60) | GI50 (LOX IMVI) | GI50 (HOP-92) | GI50 (Hs-578T) | GI50 (HCT-116) | GI50 (CCRF-CEM) | GI50 (OVCAR-3) | GI50 (EKVX) | GI50 (NCI-H522) | GI50 (OVCAR-5) | GI50 (BT-549)
C=CCN1CCC2(CC1)NC(=O)c1ccccc1O2 | > 100 µM (inactive) | > 100 µM (inactive) | > 100 µM (inactive) | > 100 µM (inactive) | > 100 µM (inactive) | > 100 µM (inactive) | > 100 µM (inactive) | > 100 µM (inactive) | > 100 µM (inactive) | > 100 µM (inactive) | > 100 µM (inactive) | > 100 µM (inactive) | > 100 µM (inactive) | > 100 µM (inactive) | > 100 µM (inactive) | > 100 µM (inactive) | > 100 µM (inactive) | > 100 µM (inactive) | > 100 µM (inactive) | > 100 µM (inactive)
COc1cc(/C=C2\CCC/C(=C\c3ccc(O)c(OC)c3)C2=O)ccc1O [CYCLOVALONE] | 1.2 µM (inactive) | 3.13 µM (inactive) | 3.22 µM (inactive) | 2.38 µM (inactive) | 1.28 µM (inactive) | 2.87 µM (inactive) | 3.73 µM (inactive) | 2.24 µM (inactive) | 3.47 µM (inactive) | 1.47 µM (inactive) | 1.67 µM (inactive) | 5.2 µM (inactive) | 4.16 µM (inactive) | 2.07 µM (inactive) | 0.525 µM (active) | 2.74 µM (inactive) | 6.84 µM (inactive) | 1.57 µM (inactive) | 9.66 µM (inactive) | 3.59 µM (inactive)
CCOC(=O)c1nc2c(nc1C(=O)OCC)C(=O)c1ccccc1C2=O | 0.753 µM (active) | 0.246 µM (active) | 0.348 µM (active) | 0.201 µM (active) | 0.263 µM (active) | 1.45 µM (inactive) | 1.59 µM (inactive) | 0.649 µM (active) | 0.828 µM (active) | 0.427 µM (active) | 0.353 µM (active) | 5.36 µM (inactive) | 0.236 µM (active) | 0.875 µM (active) | 0.601 µM (active) | 0.37 µM (active) | 1.38 µM (inactive) | 0.671 µM (active) | 0.562 µM (active) | 0.471 µM (active)
CCCCCCCCC(=O)NCCN(CCN)C(=O)CCCCCCCC | 2.49 µM (inactive) | 13.7 µM (inactive) | 2.18 µM (inactive) | 10.8 µM (inactive) | 2.69 µM (inactive) | 2.48 µM (inactive) | 15.5 µM (inactive) | 13.5 µM (inactive) | 13.6 µM (inactive) | 0.65 µM (active) | 3.85 µM (inactive) | 14 µM (inactive) | 8.38 µM (inactive) | 3.74 µM (inactive) | 2.38 µM (inactive) | 15.2 µM (inactive) | 18.2 µM (inactive) | 2.65 µM (inactive) | 15.8 µM (inactive) | 3.44 µM (inactive)
NCCOc1ccccn1 | > 100 µM (inactive) | > 100 µM (inactive) | > 100 µM (inactive) | > 100 µM (inactive) | > 100 µM (inactive) | > 100 µM (inactive) | > 100 µM (inactive) | > 100 µM (inactive) | > 100 µM (inactive) | > 100 µM (inactive) | > 100 µM (inactive) | > 100 µM (inactive) | > 100 µM (inactive) | > 100 µM (inactive) | > 100 µM (inactive) | > 100 µM (inactive) | > 100 µM (inactive) | > 100 µM (inactive) | > 100 µM (inactive) | > 100 µM (inactive)

— ChEMBL document CHEMBL1201862, “PubChem BioAssay data set” (2004)
